In ChEMBL document CHEMBL1146244, “Stictic acid derivatives from the lichen Usnea articulata and their antioxidant activities” (J Nat Prod, 2007) one finds IC50 and Activity data, which are given here for 4 compounds.

Assay [1] in a line: Superoxide radical scavenging activity. In kind it is functional.
Assay [2] is described as follows: DPPH radical scavenging activity at 3000 uM. Type of assay: functional. (In general: The DPPH test is a chemical assay of radical scavenging.)

As usually defined, the IC50 is the point on the concentration scale where inhibition reaches its midpoint. In assay [1], `Cc1cc(O)c(C=O)c2c1C(=O)Oc1c(C)c(O)c3c(c1O2)C(O)OC3=O` (stereo not given) [NORSTICTIC ACID] had an IC50 of 566 µM.

Consider `COc1cc(C)c2c(c1C=O)Oc1c(C=O)c(C(=O)O)c(O)c(C)c1OC2=O`, for which the Activity in assay [2] amounted to 30%.

In the case of `COc1cc(C)c2c(c1CO)Oc1c3c(c(O)c(C)c1OC2=O)C(=O)OC3`, the Activity in assay [2] turned out to be 18%.

In assay [2], `Cc1cc(O)c(C=O)c2c1C(=O)Oc1c(COC(=O)/C=C/C(=O)O)c(O)c(C(=O)O)c(C)c1O2` [FUMARPROTOCETRARIC ACID] gave an Activity of 20%. The compound further displayed a concentration for half-maximal inhibition (IC50) in assay [1] of 580 µM.
